Measurements from patent publication US8350062B2, “Synthesis and anticancer activity of new actin-targeting small-molecule agents” (priority 2009, dated 2013).
Entries after “also recorded” stand apart in the source; their conditions may differ. Like-named read-outs stand apart in the source and are kept apart here.

Assays:
[1] = test system: non-small cell broncho-pulmonary carcinoma xenografts; conditions: mouse, in vivo; cited from earlier work
[2] = test system: A549 cells; assay: Cell viability assay (CellTiter-Glo), growth inhibition of A549 cells; format: cell-based, human; conditions: 48 h incubation
Description: Cell Viability Assays. All assays were performed using at least three replicate wells for each concentration tested. Original 10-25 mM DMSO stock solution of bistramide A or its analogs was diluted to 100 μM for analogs 4-8, 10 μM for analog 3, 5 μM for analog 2 and 1 μM for bistramide A (1) with F-12K cell culture media supplemented with 10% fetal bovine serum, 100 I.U./ml penicillin, 100 μg/ml streptomycin and 2 mM L-glutamine. Two-fold serial dilutions were performed and used for cell-based assays. A549 cells were grown in 96-well white plates at the density of 1,000 cells per well in 100 μl F-12K cell culture media. Cells were allowed to attach over 24 h and treated with 30 μl of the drug solution and incubated further for 48 h. After incubation, cell viability was determined using luminescence-based commercial kit (CellTiter-Glo, Promega) and luminescence measured using a Wallac Victor 3 plate reader. To measure cell growth inhibition, viability assays were performed twice: at initial time point T0 and after 48 h incubation (T48). Change in the number of viable cells was measured, and GI50 was calculated from sigmoidal plots. For analog 10, growth of A549 and PC3 cells was monitored over 96 h following addition of the drug. 100 μM was the highest concentration tested. At no point did the total DMSO conc. exceed 1%.

[3] = target: T1, G-actin (Oryctolagus cuniculus, UniProt P68135); assay: Interaction with actin by MALDI-TOF (covalent modification); format: biochemical, rabbit; conditions: 1:1 actin-drug complex, 30 min
T1 construct: Actin was purified from rabbit muscle acetone powder; tissue Pel-Freez Biologicals (acetone powder); host or cells: rabbit muscle acetone powder
Description: Interaction Of Bistramide-Based Compounds With Actin By MALDI-TOF. A 1:1 actin-drug complex was incubated for 30 min in 2 mM Tris-HCl, pH 8.0, 0.2 mM CaCl2, 0.01% NaN3, 0.2 mM ATP, 1 mM 2-mercaptoethanol, diluted with deionized water to 26 μM and mixed with an equal volume of a solution of 10 mg/ml sinapinic acid in 50% CH3CN— 0.1% TFA. MALDI spectra were obtained on a Voyager-DE PRO biospectrometry workstation.

[4] = test system: F-actin in A549 cells; assay: Fluorescent visualization of F-actin in A549 cells (Alexa Fluor 488 phalloidin); format: cell-based, human; conditions: for concentration inducing actin depolymerization in A549 cells: 2 h incubation; for actin depolymerization in A549 cells: 100 μM, 2 h
Description: The presence of the enone increased the severing efficiency of the analogs three-fold. […] We determined whether it was the depletion of actin filaments by analogs 2-5 which was responsible for the growth inhibition of A549 cells. Each of the compounds was incubated with A549 cells for 2 h at a concentration that exceeded the GI50 value by a factor of 5. The cells were then fixed, permeabilized and filamentous actin was visualized by fluorescence microscopy following Alexa Fluor 488 phalloidin staining. […] They induced depolymerization at 150 nM for bistramide A (1), 500 nM for analog 2 and 2 μM for analog 3. Analogs 4 and 5 induced depolymerization of actin only at concentrations as high as 100 μM. […] This observation was consistent with the enhanced cell-based activity of the compounds containing the C(1)-C(4) enone moiety.
Fluorescent Visualization Of F-Actin In Cells. A549 cells grown on coverslips were incubated with analogs 4-8 (100 μM) analog 3 (2 μM) or analog 2 (500 nM) or bistramide A (150 nM) in F-12K cell culture medium for 2 h, fixed with 3% formaldehyde in PBS at 25° C. for 5 min and permeabilized with 0.1% Triton X-100 at 25° C. for 10 min. After washing with PBS, coverslips were stained with Alexa Fluor 488 Phalloidin and visualized by fluorescence microscopy.

[5] = target: filamentous actin (Oryctolagus cuniculus, UniProt P68135); assay: TIRF microscopy of actin filament severing and depolymerization; format: biochemical, rabbit; design: Actin was purified from rabbit muscle acetone powder; tissue Pel-Freez Biologicals (acetone powder); host or cells: rabbit muscle acetone powder; conditions: for Pointed-end depolymerization rate: standard deviations 0.1-0.3 subunits/s; for Barbed-end depolymerization rate: standard deviations 0.4-0.6 subunits/s; for severing of actin filaments compared to bistramide A (1): determined at 15 μM; for effect on actin depolymerization: concentrations as high as 200 μM
Text: To gain further insight into the mode of action of bistramide A, we next investigated the interaction of the natural product and its analogs with filamentous actin. […] Similar observations have been reported for several other actin-binding natural products. However, this effect could provide only limited mechanistic information and may primarily reflect the binding of a small molecule to the filaments in close proximity to the dye and quenching of pyrene fluorescence, which could be independent of the rates of actin depolymerization. Some proteins like myosin and Actin Depolymerizing Factor (ADF)/Cofilin are known to do so. Total internal reflection fluorescence (TIRF) microscopy has recently emerged as a powerful tool to investigate actin filament dynamics and its regulation by several actin-binding proteins, as well as latrunculin A, which is […] depolymerizing filamentous actin in vitro. Thus, we decided to employ TIRF microscopy to observe in real time the effects of bistramide-based compounds on actin polymerization in vitro. We believe this is the first instance where TIRF microscopy has been utilized to study the severing of actin filaments by a small molecule. We polymerized G-actin containing 25% of tetramethylrhodamine-functionalized and 10% of biotin-functionalized actin. The resulting actin filaments were immobilized onto the streptavidin-coated glass slides (in a flow cell). Analogs 1-8 were flown through the flow cell and imaged by time-lapse TIRF microscopy.
Total Internal Reflection Fluorescence Microscopy. Actin filament severing was studied using a custom-built total internal reflection fluorescence microscope. Images were collected with a 100×, 1.45 NA objective (Olympus) and an EMCCD camera (iXon, Andor Technologies). Glass flow cell (6 μl volume) was washed with 0.25 mg/ml neutravidin in F-buffer (50 mM KCl, 1 mM MgCl2, 1 mM EGTA, 10 mM imidiazole, 2 mM ATP, 0.2 mM 2-mercaptoethanol, 2 min) and blocked with 1 mg/ml BSA in F-buffer (2 min). Ten microliters of 200 nM Mg^2+-F-actin (10% biotinylated, 25% labeled with maleimide-6-tetramethylrhodamine) in TIRF-buffer (50 mM KCl, 1 mM MgCl2, 1 mM EGTA, 10 mM imidiazole, 2 mM ATP, 4.5 mg/ml glucose, 0.5% 2-mercaptoethanol, 4.3 mg/ml glucose oxidase, 0.7 mg/ml catalase) was added to the flowcell and incubated for 2 min. The chamber was rinsed with TIRF-buffer and imaged. Compounds were freshly diluted from their DMSO stock solutions in TIRF-buffer and were added to the chamber immediately after the start of each experiment. Images were collected at 0.2-s exposures every 3 s for 200 frames. For kinetics studies, movies of suitable length were obtained for each of the analog concentrations. Analysis was performed using ImageJ.

[6] = target: T1, G-actin; assay: Isothermal titration calorimetry, binding to monomeric actin; design: species or system rabbit; conditions: for Kd: isothermal titration calorimetry, 25° C.
Description: Isothermal Titration Calorimetry. A solution of rabbit skeletal muscle actin (5-10 μM) was titrated with bistramide A or its analog (50-100 μM) at 25° C. in buffer containing 2 mM Tris HCl, pH 8.0, 0.2 mM CaCl2, 0.01% NaN3, 0.2 mM ATP, 0.2 mM 2-mercaptoethanol. Dissociation constants were calculated from the binding curve using Origin analytical software (OriginLab) with the binding model involving a single set of identical sites

[7] = mouse, in vivo; cited from earlier work
[8] = Homo sapiens, A549, 48 h, read-out: GI50
[9] = Homo sapiens, A549, 48 h, values of the text, read-out: GI50

SMILES | GI50 [2, 8] [µM] | covalent modification of G-actin [3] | concentration inducing actin depolymerization in A549 cells [4] [µM] | No. of breaks per 100 μm ([5]; compound at 15 μM) [per 100 μm] | Pointed-end depolymerization rate ([5]; compound at 15 μM) [subunits/s] | Barbed-end depolymerization rate ([5]; compound at 15 μM) [subunits/s] | severing of actin filaments compared to bistramide A (1) [5] | Kd ([6]; read-out: Kd) [µM] | No. of breaks per 100 μm ([5]; compound at 200 μM) | Pointed-end depolymerization rate ([5]; compound at 200 μM) [subunits/s] | Barbed-end depolymerization rate ([5]; compound at 200 μM) [subunits/s] | GI50 [2] | actin depolymerization in A549 cells [4] | also measured
C/C=C/[C@H](O)CC1CCC(C)C(CC(=O)NCC(O)C(C)C(=O)NCCCC2OC3(CCCC(CCC(C)/C=C(\C)C(C)O)O3)CCC2C)O1 (stereo partly drawn) [bistramide D] | – | – | – | – | – | – | – | – | – | – | – | – | – | inhibition of tumor growth in xenograft model [1]: shown to inhibit proliferation; also recorded: effective at inhibiting tumor growth in vivo
C=C[C@@H](C)CC[C@@H]1CCC[C@]2(CCC(C)[C@@H](CCCNC(=O)[C@@H](C)[C@@H](O)CNC(=O)CC3O[C@H](CC(=O)/C=C/C)CCC3C)O2)O1 (stereo partly drawn) [Analog 2] | 0.087 | covalently modified G-actin | 0.5 | 41.8 | 0.48 | 1.90 | severed actin filaments albeit with lesser efficiency | 0.07 | – | – | – | – | – | GI50 [2, 9]: 0.0871 µM; potency at severing filamentous actin relative to analog 4 ([5]; initial rate of severing, 1-15 μM): at least three times more potent at severing filamentous actin
C/C=C/C(O)C/C=C/CC(C)C(O)CC(=O)NCC(O)C(C)C(=O)NCCCC1OC2(CCCC(CCC(C)/C=C(\C)C(C)O)O2)CCC1C (stereo not drawn) [bistramide K] | – | – | – | – | – | – | – | – | – | – | – | – | – | inhibition of tumor growth in xenograft model [1]: shown to inhibit proliferation; also recorded: effective at inhibiting tumor growth in vivo; dose with no observed toxicity [7]: up to 200 mg/kg
C=CCC[C@@H]1CCC[C@]2(CCC[C@@H](CCCNC(=O)[C@@H](C)[C@@H](O)CNC(=O)CC3O[C@H](CC(=O)/C=C/C)CCC3C)O2)O1 (stereo partly drawn) [Analog 3] | 0.323 | covalently modified G-actin | 2 | – | – | – | – | 1.5 | 13.3 per 100 μm | 0.57 | 1.84 | – | – | GI50 [2, 9]: 0.323 µM; concentration at which actin filaments were severed [5]: 200 µM
C=CCC[C@@H]1CCC[C@]2(CCC[C@@H](CCCNC(=O)[C@@H](C)[C@@H](O)CNC(=O)CCOC)O2)O1 [Analog 6] | > 100 | no cross-linking was observed | – | – | – | – | – | 0.68 | 3.4 per 100 μm | 0.41 | 2.29 | No cell -based activity | No depolymerization was observed | concentration at which actin filaments were severed [5]: 200 µM
C=CC[C@@H]1CCCC(CC(=O)NC[C@H](O)[C@H](C)C(=O)NCCC[C@H]2O[C@@]3(CCC[C@@H](CC[C@H](C)C=C)O3)CCC2C)O1 (stereo partly drawn) [Analog 4] | 11.2 | no cross-linking was observed | 100 | 16.5 | 0.51 | 1.92 | severed actin filaments albeit with lesser efficiency | 0.319 | – | – | – | – | – | –
C=C[C@@H](C)CC[C@@H]1CCC[C@]2(CCC(C)[C@@H](CCCNC(=O)[C@@H](C)[C@@H](O)CNC(=O)CCOC)O2)O1 (stereo partly drawn) [Analog 5] | 15.1 | no cross-linking was observed | 100 | 13.0 | 0.55 | 1.93 | severed actin filaments albeit with lesser efficiency | 0.043 | – | – | – | – | – | –
COCCC(=O)NC[C@H](O)[C@H](C)C(=O)NCCCCC(C)C [Analog 8] | – | – | – | – | – | – | – | – | None | 0.21 | 2.15 | No cell -based activity | No depolymerization was observed | effect on actin depolymerization [5]: no effect on actin depolymerization; observable activity (actin binding by ITC and inhibition of A549 proliferation) [6]: neither the spiroketal (analog 7) nor the central amide subunit (analog 8) alone displayed any observable activity; Kd [6]: No actin binding
C=C[C@@H](C)CC[C@@H]1CCC[C@]2(CCC(C)[C@@H](CCCNC(C)=O)O2)O1 (stereo partly drawn) [Analog 7] | – | – | – | – | – | – | – | – | 0.2 per 100 μm | 0.32 | 1.87 | No cell -based activity | No depolymerization was observed | effect on actin depolymerization [5]: no effect on actin depolymerization; observable activity (actin binding by ITC and inhibition of A549 proliferation) [6]: neither the spiroketal (analog 7) nor the central amide subunit (analog 8) alone displayed any observable activity; Kd [6]: No actin binding
